Experimental findings from US20070021509A1, “Phosphate transport inhibitors” (priority 2001, published 2007) are described below.

Experiment [1] relates to phosphate uptake by rabbit intestinal Brush Border Membrane Vesicles (BBMV). Put plainly: 33PO4 uptake in rabbit intestinal BBMV (HTS), phosphate transporter inhibition in vitro. The class given is biochemical. As to conditions: Table 13, phosphate uptake, read-out: IC50. A digest of the protocol:
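BBMV from duodenal mucosa of male New Zealand White rabbits, diluted to about 0.5-2.0 mg/mL protein. Uptake buffers carried 33PO4 at 200,000 CPM/19 μL. Controls: Na uptake buffer (max), plus 100 μM KH2PO4 pH 7.4 (mid), K uptake buffer (min).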

For experiment [2], the system named is sodium-dependent phosphate uptake into isolated rabbit intestinal rings. The experiment in a line: Ex vivo 33P uptake into isolated rabbit intestinal rings. As to conditions: Table 14, 15-minute incubation. It counts as cell-based. On the set-up: concentration or dose not given beside the values. On the procedure: For the ex vivo assay, ^33P uptake into isolated rabbit intestinal rings was measured using a modification of the method described by Crane and Mandelstam [Robert K. Crane and Paul Mandelstam “The active transport of sugars by various preparations of hamster intestine” Biochim. Biophys. Acta 45: 460-476, 1960; the contents of which are incorporated herein by reference]. Male New Zealand rabbits 2-3 kg in weight were aeuthinized by an i.v. injection of Fatal Pluse®. A midline laparotomy was performed and the duodenum from the pyloric junction to the ligament of Trietz isolated and excised. Segments of bowel were everted, cut into 2-4 mm ring-like pieces and placed into a modified Hepes-Buffered Ringer's solution in which Na^+ had been iso-osmotically replaced with N-methyl-D-glucamine. To measure phosphate uptake, six rings were incubated in a 50 ml conical tube containing a 10 ml volume of Ringer's solution, with or without Na^+, bubbled with 100% O2 and maintained at 37° C. 0.5 uCi/ml ^33P was then incubated with the rings for a 15-minute period, the tissue harvested, rinsed, blotted dry and weighed. Tissues were then solublized by digesting them in a 5 ml volume of Solvable® tissue solubilizer overnight at 50° C. and ^33P levels determined by scintillation counting. Sodium-dependent uptake of ^33P was calculated by determining the difference in uptake between rings incubated in the presence and absence of Na^+ in the Hepes-Buffered Ringer's solution. Results are reported as the percentage inhibition of phosphate and glucose uptake, respectively.

Experiment [3] deals with glucose uptake into isolated rabbit intestinal rings. Put plainly: Ex vivo glucose uptake into isolated rabbit intestinal rings. It counts as cell-based. On the set-up: concentration or dose not given beside the values. The conditions noted are these: Table 14. As to the method:
For the ex vivo assay, ^33P uptake into isolated rabbit intestinal rings was measured using a modification of the method described by Crane and Mandelstam [Robert K. Crane and Paul Mandelstam “The active transport of sugars by various preparations of hamster intestine” Biochim. Biophys. Acta 45: 460-476, 1960; the contents of which are incorporated herein by reference]. Male New Zealand rabbits 2-3 kg in weight were aeuthinized by an i.v. injection of Fatal Pluse®. A midline laparotomy was performed and the duodenum from the pyloric junction to the ligament of Trietz isolated and excised. Segments of bowel were everted, cut into 2-4 mm ring-like pieces and placed into a modified Hepes-Buffered Ringer's solution in which Na^+ had been iso-osmotically replaced with N-methyl-D-glucamine. […] […] Tissues were then solublized by digesting them in a 5 ml volume of Solvable® tissue solubilizer overnight at 50° C. and ^33P levels determined by scintillation counting. Sodium-dependent uptake of ^33P was calculated by determining the difference in uptake between rings incubated in the presence and absence of Na^+ in the Hepes-Buffered Ringer's solution. Results are reported as the percentage inhibition of phosphate and glucose uptake, respectively.

SMILES strings stand for the structures. Where only a bound is given, the exact number is not on record here.

As for `Cc1ccc(S(=O)(=O)Nc2ccc(/C=C/c3ccc(NS(=O)(=O)c4ccc(C)c([N+](=O)[O-])c4)cc3S(=O)(=O)O)c(S(=O)(=O)O)c2)cc1[N+](=O)[O-]` [Compound 309], in experiment [1], the IC50 was more than 1.5 mM.
Still for that read-out and setting: for `O=S(=O)(O)c1cc(NS(=O)(=O)c2cccc3cccnc23)ccc1/C=C/c1ccc(NS(=O)(=O)c2cccc3cccnc23)cc1S(=O)(=O)O` [Compound 311] the value was more than 1.5 mM.
For the molecule `O=C(NCc1ccccc1OC(F)(F)F)c1cc(Br)ccc1NS(=O)(=O)c1ccc(Cl)cc1` [Example 72, 5-Bromo-2-(4-chloro-benzenesulfonylamino)-N-(2-trifluoromethoxy-benzyl)-benzamide], in experiment [2], the “% Phosphate Transport Inhibition” value worked out at 24%. The “% Glucose Transport Inhibition” value in experiment [3] worked out at 6%.
In the same order, the values of `COc1ccccc1CNC(=O)c1cc(Br)ccc1NS(=O)(=O)c1ccc(C(F)(F)F)cc1[N+](=O)[O-]` [Example 80, 5-Bromo-N-(2-methoxy-benzyl)-2-(4-trifluoromethyl-2-nitro-benzenesulfonylamino)-benzamide] are 43% and 39%.
In the same order, the values of `O=C(Nc1ccc(Br)cc1)c1cccc(C(F)(F)F)c1` [Example 81, N-(4-Bromo-phenyl)-3-trifluoromethyl-benzamide] are 22% and 13%.

For orientation: IC50 means the concentration needed to halve the response being measured.
